The source of these data is PubChem BioAssay (NCI).

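Results reflect a 48-hour exposure of cells in 96-well plates to compound at five concentrations. Definition used: TGI = concentration required for complete inhibition of growth.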

Some test systems named below: HCT-116 colon; MDA-MB-231 breast; OVCAR-5 ovarian; LOX IMVI melanoma; SK-MEL-5 melanoma; NCI-H522 lung; HOP-62 NSCLC; SF-539 CNS; M14 melanoma; SN12C renal.
What all share (test): growth of human tumour cells (NCI), 48 h

Consider `Nc1c(-c2ccccc2)c2ccc([N+](=O)[O-])cc2c(=O)n1-c1cccc(C(=O)O)c1`, for which the TGI in the assay with HCT-116 colon, in the assay on MDA-MB-231 breast, in the assay on OVCAR-5 ovarian, in the assay with LOX IMVI melanoma, in the assay on SK-MEL-5 melanoma and in the assay with NCI-H522 lung was more than 100 µM throughout. The TGI in the assay on HOP-62 NSCLC, with SF-539 CNS and in the assay with M14 melanoma was more than 100 µM each time.

Consider `O=c1c2ccccc2n2nnc3ccc(NCCNCCO)c1c32`, for which the TGI stood at 10.3 µM in the assay on HCT-116 colon; 8.18 µM in the assay with MDA-MB-231 breast; 7 µM in the assay on OVCAR-5 ovarian; 2.6 µM in the assay with LOX IMVI melanoma; 4.37 µM with SK-MEL-5 melanoma; 7.23 µM with NCI-H522 lung. Also, the TGI with HOP-62 NSCLC is 8.91 µM; in the assay on SF-539 CNS it was 14.6 µM; in the assay on M14 melanoma it was 5.2 µM; in the assay with SN12C renal, 13.1 µM.

Regarding `Cc1c(C)c2c(c(N)c1C#N)C(=O)N(NC(=S)Nc1ccccc1)C2=O`, the TGI in the assay on HCT-116 colon, in the assay with MDA-MB-231 breast, in the assay on OVCAR-5 ovarian, in the assay with SK-MEL-5 melanoma, in the assay with NCI-H522 lung and in the assay on SF-539 CNS was more than 100 µM throughout. The TGI in the assay on M14 melanoma and with SN12C renal was more than 100 µM throughout.

With `Cc1cc(C)n(C(=CC(=O)C(Cl)Cl)n2nc(C)cc2C)n1`, the TGI was 6.81 µM in the assay with HCT-116 colon; 12.3 µM in the assay with MDA-MB-231 breast; 14.5 µM with OVCAR-5 ovarian; 3.67 µM in the assay on LOX IMVI melanoma; 20.3 µM in the assay on SK-MEL-5 melanoma; 7.76 µM in the assay with NCI-H522 lung. Also, the values for the TGI in the assay on HOP-62 NSCLC, with SF-539 CNS and in the assay with M14 melanoma were 17.5 µM, 14.1 µM and 13.3 µM, respectively.

As to `N=C(N)c1ccc(N=Nc2c(O)c(C(=O)Nc3ccccc3)cc3ccccc23)cc1`, the TGI was 12.5 µM with HCT-116 colon; 22.4 µM in the assay on MDA-MB-231 breast; more than 62.4 µM in the assay on OVCAR-5 ovarian; more than 49.6 µM in the assay on SK-MEL-5 melanoma; 34.5 µM with NCI-H522 lung; 41 µM with HOP-62 NSCLC. Further, the TGI is 43 µM in the assay on SF-539 CNS, more than 100 µM in the assay on M14 melanoma and 54.5 µM in the assay with SN12C renal.

Take `O=c1[nH]c2ccccc2c(=O)n1/N=C\c1ccccc1O`: the TGI with HCT-116 colon, with MDA-MB-231 breast, with OVCAR-5 ovarian, in the assay on LOX IMVI melanoma, in the assay on SK-MEL-5 melanoma and in the assay with HOP-62 NSCLC was more than 100 µM in each case. Besides, the TGI in the assay on SF-539 CNS, with M14 melanoma and in the assay on SN12C renal was more than 100 µM in each case.

With `CCOC(=O)CSc1nc(-c2ccc(Cl)cc2)c(C#N)c(=O)[nH]1`, the TGI in the assay on HCT-116 colon, with MDA-MB-231 breast, in the assay with OVCAR-5 ovarian, in the assay with SK-MEL-5 melanoma, in the assay on NCI-H522 lung and in the assay with HOP-62 NSCLC was more than 100 µM in each case. Further, the TGI in the assay with SF-539 CNS, in the assay on M14 melanoma and in the assay with SN12C renal was more than 100 µM each time.

As to `CN(C)c1ccc(/C=C2\N=C(c3ccccc3)N(c3nc4ccc(Sc5ccccc5)cc4[nH]3)C2=O)cc1`, the TGI with HCT-116 colon, in the assay with MDA-MB-231 breast, in the assay on OVCAR-5 ovarian, in the assay on LOX IMVI melanoma, with SK-MEL-5 melanoma and with NCI-H522 lung was more than 100 µM each time. Further, the TGI with HOP-62 NSCLC, with M14 melanoma and in the assay with SN12C renal was more than 100 µM throughout.

For the compound `Cc1cc(S(=O)(=O)NC2=NCc3c(F)cccc3N2)c(S)cc1Cl`, the TGI in the assay with HCT-116 colon, in the assay with MDA-MB-231 breast, with OVCAR-5 ovarian, in the assay with LOX IMVI melanoma, in the assay on SK-MEL-5 melanoma and in the assay with NCI-H522 lung was more than 100 µM each time. For the same compound, the TGI in the assay with SF-539 CNS, in the assay on M14 melanoma and with SN12C renal was more than 100 µM each time.

`CCOC(=O)NCC(=O)NCC(=O)NCC(N)=O`: the TGI with HCT-116 colon, in the assay with MDA-MB-231 breast, in the assay on OVCAR-5 ovarian, in the assay with SK-MEL-5 melanoma, with NCI-H522 lung and with HOP-62 NSCLC was more than 100 µM throughout. This compound came in with a TGI with M14 melanoma of more than 100 µM.

For `CCOC(=O)CC1(N)CC2c3ccccc3OC(=O)C2C(=O)N1` (configuration not stated), the TGI with HCT-116 colon, in the assay with MDA-MB-231 breast, with OVCAR-5 ovarian, in the assay with LOX IMVI melanoma, with NCI-H522 lung and with HOP-62 NSCLC was more than 100 µM throughout. For the same compound, the TGI with M14 melanoma and in the assay with SN12C renal was more than 100 µM in each case.

As for `CN(Cc1ccccc1)C(=S)S`, the TGI with HCT-116 colon was 39.6 µM; in the assay with MDA-MB-231 breast, more than 100 µM; in the assay on OVCAR-5 ovarian, more than 100 µM; with LOX IMVI melanoma it was more than 100 µM; in the assay with SK-MEL-5 melanoma, more than 100 µM; in the assay with NCI-H522 lung, more than 100 µM. For the same compound, the TGI was more than 100 µM in the assay with HOP-62 NSCLC, 72.6 µM in the assay on M14 melanoma and more than 100 µM with SN12C renal.

Take `CCn1c(-c2cc3ccccc3cc2OC(C)=O)n[nH]c1=S`: the TGI in the assay on HCT-116 colon was 41.7 µM; in the assay on MDA-MB-231 breast, 80.4 µM; in the assay on OVCAR-5 ovarian it was more than 100 µM; in the assay with LOX IMVI melanoma it was more than 100 µM; with SK-MEL-5 melanoma, 38.2 µM; with NCI-H522 lung, 38.8 µM. For the same compound, the TGI in the assay on HOP-62 NSCLC, in the assay with SF-539 CNS and in the assay with M14 melanoma was more than 100 µM each time.

For `COc1ccc(C=C2C(C)=NN(c3cccc(Cl)c3)C23C(Cl)C(=O)N3c2nc3ccccc3s2)cc1` (configuration not stated), the TGI in the assay on HCT-116 colon worked out at 28.8 µM; with MDA-MB-231 breast, 51.5 µM; in the assay with OVCAR-5 ovarian, 37.6 µM; in the assay on LOX IMVI melanoma, 38.5 µM; with SK-MEL-5 melanoma, 32.9 µM; in the assay on NCI-H522 lung it was 22 µM. Also, the TGI in the assay with HOP-62 NSCLC is 44.4 µM; in the assay on SF-539 CNS, more than 100 µM; with M14 melanoma, 44.5 µM.

On to `FC(F)(Sc1ncccn1)c1nc2ccccc2o1`, for which the TGI in the assay on HCT-116 colon, with MDA-MB-231 breast, in the assay with OVCAR-5 ovarian, with SK-MEL-5 melanoma, in the assay with NCI-H522 lung and in the assay with HOP-62 NSCLC was more than 100 µM each time. Further, the TGI in the assay with SF-539 CNS, with M14 melanoma and in the assay on SN12C renal was more than 100 µM throughout.
